Values quoted from earlier work in patent US10906892B2, “LFA-1 inhibitor and methods of preparation and polymorph thereof” (NOVARTIS PHARMACEUTICALS CORPORATION, priority 2012, dated 2021).

Columns and labels:
[1] = biological target: Lymphocyte Function-Associated Antigen-1 (LFA-1) interactions with ICAM (Homo sapiens, UniProt P20701); details: background statement, no data given
[2] = background statement, no data given

Chain of Lymphocyte Function-Associated Antigen-1 (LFA-1) interactions with ICAM (P20701 26-1170): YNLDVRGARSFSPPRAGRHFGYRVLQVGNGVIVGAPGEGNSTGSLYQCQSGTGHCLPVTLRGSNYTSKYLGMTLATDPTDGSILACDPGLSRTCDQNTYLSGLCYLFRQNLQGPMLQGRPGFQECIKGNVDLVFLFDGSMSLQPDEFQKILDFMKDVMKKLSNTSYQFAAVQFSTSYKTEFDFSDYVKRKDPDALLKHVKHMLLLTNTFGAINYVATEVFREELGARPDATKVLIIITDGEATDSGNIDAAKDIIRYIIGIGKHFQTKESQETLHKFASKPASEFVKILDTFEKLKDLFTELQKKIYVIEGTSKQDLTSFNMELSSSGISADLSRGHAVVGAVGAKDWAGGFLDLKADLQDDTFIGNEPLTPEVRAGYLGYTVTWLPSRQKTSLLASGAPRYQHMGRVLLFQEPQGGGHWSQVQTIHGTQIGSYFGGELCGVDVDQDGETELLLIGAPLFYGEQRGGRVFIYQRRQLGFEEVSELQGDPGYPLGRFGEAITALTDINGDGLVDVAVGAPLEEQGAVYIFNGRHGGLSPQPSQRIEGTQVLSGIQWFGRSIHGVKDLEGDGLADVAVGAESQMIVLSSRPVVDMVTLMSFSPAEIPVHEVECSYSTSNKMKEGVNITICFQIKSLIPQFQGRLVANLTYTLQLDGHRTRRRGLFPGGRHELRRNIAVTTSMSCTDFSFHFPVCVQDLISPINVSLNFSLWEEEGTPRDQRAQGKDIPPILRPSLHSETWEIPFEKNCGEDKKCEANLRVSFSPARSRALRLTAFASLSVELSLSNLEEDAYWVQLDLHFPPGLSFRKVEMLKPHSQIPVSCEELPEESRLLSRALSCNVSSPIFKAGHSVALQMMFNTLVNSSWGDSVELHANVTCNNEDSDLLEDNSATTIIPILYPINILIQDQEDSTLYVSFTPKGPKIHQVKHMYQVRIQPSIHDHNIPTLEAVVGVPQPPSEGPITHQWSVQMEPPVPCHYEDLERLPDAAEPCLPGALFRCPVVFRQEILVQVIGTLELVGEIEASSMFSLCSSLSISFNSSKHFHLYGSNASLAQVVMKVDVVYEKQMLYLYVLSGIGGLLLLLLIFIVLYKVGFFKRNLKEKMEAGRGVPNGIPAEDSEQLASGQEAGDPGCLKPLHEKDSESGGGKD
Chain of Lymphocyte Function-Associated Antigen-1 (LFA-1) interactions with ICAM (P05107 23-769 partner): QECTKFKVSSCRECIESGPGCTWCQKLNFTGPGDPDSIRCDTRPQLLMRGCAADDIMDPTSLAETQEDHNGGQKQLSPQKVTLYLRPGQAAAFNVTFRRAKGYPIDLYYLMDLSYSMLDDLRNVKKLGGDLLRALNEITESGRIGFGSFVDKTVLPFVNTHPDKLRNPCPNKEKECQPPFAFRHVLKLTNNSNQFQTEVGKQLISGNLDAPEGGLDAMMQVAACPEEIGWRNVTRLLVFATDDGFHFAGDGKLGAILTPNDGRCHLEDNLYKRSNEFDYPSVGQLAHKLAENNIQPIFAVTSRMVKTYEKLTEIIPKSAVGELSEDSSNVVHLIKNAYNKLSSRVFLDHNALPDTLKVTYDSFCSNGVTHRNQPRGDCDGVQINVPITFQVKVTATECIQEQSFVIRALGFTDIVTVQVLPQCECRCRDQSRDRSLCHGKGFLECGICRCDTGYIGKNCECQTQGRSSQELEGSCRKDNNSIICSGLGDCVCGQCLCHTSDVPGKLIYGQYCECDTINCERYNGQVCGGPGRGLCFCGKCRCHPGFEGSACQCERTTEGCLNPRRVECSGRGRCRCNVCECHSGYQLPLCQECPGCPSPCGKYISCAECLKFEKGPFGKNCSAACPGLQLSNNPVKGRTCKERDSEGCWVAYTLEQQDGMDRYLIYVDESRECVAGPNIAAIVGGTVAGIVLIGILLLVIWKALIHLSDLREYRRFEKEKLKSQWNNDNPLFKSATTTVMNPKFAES

inhibition of LFA-1 interactions with ICAM [1]: effective inhibitor | systemic clearance [2]: rapid systemic clearance
Compound: CS(=O)(=O)c1cccc(C[C@H](NC(=O)c2c(Cl)cc3c(c2Cl)CCN(C(=O)c2ccc4ccoc4c2)C3)C(=O)O)c1 [Formula I]
